Entries after “also recorded” stand apart in the source; their conditions may differ.
Experiments:
[1] = Progression of weight, furosemide-study; assay type: in vivo, Wistar rat
Method: During the progression of both studies, the animals were weight-determined twice a week, starting from the date of surgery (laboratory balance model CS2000. Ohaus Corporation, Pine Brook, N.J., USA). The results were calculated corresponding to the post-surgical day of the respective animal.
(§1) Groups A, B and C of the infarction animals received furosemide (Lasix® 250 mg ampoule, Aventis Pharma GmbH, Frankfurt am Main, Germany) starting from day 18 (±2 days) for the whole study in a concentration of 8.6 mg/100 ml in drinking water. This corresponds to an initial dosage of 10 mg/kg/d at a weight of 300 g and an amount of drinking water of 35 ml/d.
Animals from the infarction-placebo group (without furosemide) and all sham-animals received drinking water without supplementation.
(§2) The infarction-furosemide-group corresponds to the blinded infarction-placebo-group of the megestrol acetate-Study (here: infarction-furosemide-group). An additional infarction-surgery group received simple drinking water without furosemide and served as control group for the furosemide-study (here: infarction-placebo-group). In order to expose all animals to equal conditions, in this group the furosemide-study was gavaged unblinded with placebo. A further group is the sham-placebo-group, that corresponds to the blinded sham-placebo-group of the megestrol acetate-study (here: sham-placebo-group).
Like in the megestrol acetate-study, the weight values corresponding to the day post-surgery of the respective animal were compared, but this time the data was analysed as a change of weight starting from the beginning of therapy of the furosemide-study (18th day post-surgery=day 0 of the furosemide-study). This therefore results in a 26 days longer period of observation for the diuretic-study in comparison with the megestrol acetate-study. Furosemide was given until the end of the observation period and to removal of organs, respectively.

[2] = system: infarction-surgery rats (ligation of the left coronary artery, heart insufficiency); assay: Echocardiography, furosemide-study; assay type: in vivo, Wistar rat
Method: as §1
Between week 28 and 30 post surgery (corresponds to week 22 to 24 in the megestrol acetate-Study or week 25 to 27 in the diuretic study), the heart function of all rats still alive was examined by echocardiography. For this, each rat was first pre-anaesthetised using isoflurane (Curamed Pharma GmbH Karlsruhe, Germany) in a chamber of the anaesthetic unit Univentor 400 Anaesthesia Unit (Agn Tho's, Lidingö, Sweden) pre-anaesthetised and subsequently maintained by using a mask. For the echocardiography examination the thorax region was shaved and the rat was fixed in a position lying on the back. The echocardiography was performed with an Acuson-Sequoia C256 (Siemens, Germany) which was equipped with a 15 MHz sonication head suitable for rat- and mouse echocardiography. The left ventricle (LV) was adjusted in the parastemal long and short axis. […] The diastolic function was evaluated based on the LV-influx profile via the mitral valve (E/A-ratio) by means of a PW-Doppler. The measurement volume of the PW-doppler was placed at the tip of the opened mitral valve flap. The measurements were performed by an independent blinded researcher. In FIG. 1 the progression of weight for all groups is depicted.
as §2

[3] = infarction-furosemide-group, furosemide via drinking water, placebo in the gavage

## NS(=O)(=O)c1cc(C(=O)O)c(NCc2ccco2)cc1Cl [furosemide]
[1]; infarction-furosemide-group
  increase of weight over the whole period of time: 1.4 g/day
  weight at the end of the observation period: 583 ± 12 g
  weight gained at the end of the observation period: 81%
[1]; infarction-furosemide-group, day 18 following surgery
  mean weight at the beginning of the diuretic-study: 322 ± 3 g
[1]; starting from day 105 after beginning of therapy, significant
  progress of weight in comparison with the placebo-group with infarction: less pronounced progress
[2]; infarction groups with vs. without furosemide
  effect on the echocardiographically determined heart function: no differences; also recorded: no direct effect
[2]; [3]
  A: 0.62 ± 0.05 m/s
  E: 0.84 ± 0.03 m/s
  E:A: 1.61 ± 0.21
  FS: 15.1 ± 1.0 %
  IVS d: 0.13 ± 0.03 cm
  LVEDD: 1.06 ± 0.02 cm
  LVEF: 35.5 ± 2.0 %
  LVESD: 0.90 ± 0.02 cm
  LVHW d: 0.17 ± 0.01 cm

— patent US8383612B2, “Use of megestrol acetate for improving heart function and the treatment of heart insufficiency” (Par Pharmaceuticals, Inc., priority 2004, dated 2013)
